For 6 compounds, IC50 and Ratio IC50 results are on record in ChEMBL document CHEMBL5393444, “Sulfonamide derivatives as ctps1 inhibitors” (2022).

Each structure is given as a SMILES string. pIC50: −log10 of the molar value.

For one assay, the target named is T1, CTP synthase 1 (Homo sapiens, UniProt P17812).
T1 sequence (P17812 whole entry): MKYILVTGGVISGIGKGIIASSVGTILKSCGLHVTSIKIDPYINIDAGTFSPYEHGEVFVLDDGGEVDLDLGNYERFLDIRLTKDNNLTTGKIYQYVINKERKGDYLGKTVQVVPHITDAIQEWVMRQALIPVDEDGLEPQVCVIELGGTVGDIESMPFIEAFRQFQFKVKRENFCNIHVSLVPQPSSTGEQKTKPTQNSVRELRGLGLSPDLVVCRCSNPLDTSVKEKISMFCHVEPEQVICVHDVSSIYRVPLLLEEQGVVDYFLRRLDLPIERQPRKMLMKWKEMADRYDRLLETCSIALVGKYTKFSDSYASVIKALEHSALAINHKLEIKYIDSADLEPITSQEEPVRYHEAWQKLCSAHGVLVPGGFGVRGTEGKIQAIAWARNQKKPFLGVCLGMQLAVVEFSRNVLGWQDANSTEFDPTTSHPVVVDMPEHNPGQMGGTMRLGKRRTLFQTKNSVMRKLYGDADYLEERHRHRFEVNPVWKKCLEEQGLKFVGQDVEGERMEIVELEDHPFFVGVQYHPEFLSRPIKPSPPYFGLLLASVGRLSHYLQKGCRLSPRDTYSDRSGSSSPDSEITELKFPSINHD
The experiment in a line: Inhibition of C-terminal FLAG-His8-tagged full length human CTPS1 preincubated for 10 mins followed by substrate addition by ADP-Glo assay. In general terms: ADP-Glo first removes unused ATP, then detects ADP through luciferase.
In the case of `CCOc1cncc(-c2ccc(NC(=O)C3(c4ccnc(NS(=O)(=O)C5CC5)n4)CCC(=O)CC3)nc2)n1`, the pIC50 – broadly, −log10 of the IC50, conventionally taken in molar units – is not below 7.00.
Same read-out and setting: the value for `CCOc1cncc(-c2ccc(NC(=O)C3(c4cncc(NS(=O)(=O)C5CC5)n4)CCOCC3)nc2)n1` was not below 7.00; that for `CCC(C(=O)Nc1ccc(-c2cncc(OC)n2)cn1)c1ccnc(NS(=O)(=O)C2CC2)n1` (configuration not stated) was not below 7.00.
`CCOc1cncc(-c2ccc(NC(=O)C(C)(C)c3ccnc(NS(=O)(=O)C4CC4)n3)cc2)n1`: the pIC50 is not below 7.00.
The same measure, in the same setting: in the case of `CCOc1cncc(-c2ccc(NC(=O)C(CC)c3ccnc(NS(=O)(=O)C4CC4)n3)c(F)c2)n1` (configuration not stated) it was not below 7.00; in that of `CC(C)Oc1cncc(-c2ccc(NC(=O)C(C)(C)c3ccnc(NS(=O)(=O)C4CC4)n3)nc2)n1`, not below 7.00.

For another assay, the species on record is Homo sapiens. In words: Selectivity ratio of IC50 for human CTPS2 to IC50 for human CTPS1 by RapidFire/MS analysis.
For `CCOc1cncc(-c2ccc(NC(=O)C3(c4ccnc(NS(=O)(=O)C5CC5)n4)CCC(=O)CC3)nc2)n1`, the Ratio IC50 was more than 60.
Regarding `CCOc1cncc(-c2ccc(NC(=O)C3(c4cncc(NS(=O)(=O)C5CC5)n4)CCOCC3)nc2)n1`, the Ratio IC50 is more than 60.
The same measure, in the same setting: in the case of `CCC(C(=O)Nc1ccc(-c2cncc(OC)n2)cn1)c1ccnc(NS(=O)(=O)C2CC2)n1` (configuration not stated) it was more than 60.
Same read-out and setting: the value for `CCOc1cncc(-c2ccc(NC(=O)C(C)(C)c3ccnc(NS(=O)(=O)C4CC4)n3)cc2)n1` was 2; that for `CCOc1cncc(-c2ccc(NC(=O)C(CC)c3ccnc(NS(=O)(=O)C4CC4)n3)c(F)c2)n1` (configuration not stated) was 2.
For the compound `CC(C)Oc1cncc(-c2ccc(NC(=O)C(C)(C)c3ccnc(NS(=O)(=O)C4CC4)n3)nc2)n1`, the Ratio IC50 was more than 60.
